Experimental data reported in the supplement of paper PMC11061612.

Assays:
Assay in all cases: Bliss excess, mean over the matrix (fraction); higher = more synergy
[1] = tested on: PC-3_[JPC-3] (Lung Adenocarcinoma)
Outline: (§1)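 After 24 hours at 37°C and 5% CO2 in 1536-well plates, cells in DMEM/F12 or RPMI plus 10% FBS received two-drug dose matrices for 72 hours. Viability came from CellTiter-Glo 2.0 luminescence and was scaled as inhibition, anchored at 0 by vehicle wells and at 1 by blank wells. Combination Emax is taken as the second-highest inhibition in the matrix, and Bliss excess as the observed combination effect less EA + EB − EA·EB, with EA and EB the single-agent effects.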

[2] = tested on: FADU (Head and Neck Carcinoma)
Outline: as §1

[3] = tested on: LK-2 (Squamous Cell Lung Carcinoma)
Outline: as §1

[4] = tested on: REH (B-Lymphoblastic Leukemia)
Outline: as §1

[5] = tested on: PSN1 (Pancreatic Carcinoma)
Outline: as §1

A2058 (Melanoma) = tested on: A2058 (Melanoma)
Outline: as §1

WM278 (Melanoma) = tested on: WM278 (Melanoma)
Outline: as §1

SF268 (Low Grade Glioma) = tested on: SF268 (Low Grade Glioma)
Outline: as §1

[6] = tested on: L-1236 (Hodgkin's Lymphoma)
Outline: as §1

[7] = tested on: OPM-2 (Plasma Cell Myeloma)
Outline: as §1

[8] = tested on: HCT-15 (Colorectal Carcinoma)
Outline: as §1

[9] = tested on: OVMIU (Ovarian Carcinoma)
Outline: as §1

[10] = tested on: CAL-62 (Thyroid Gland Carcinoma)
Outline: as §1

[11] = tested on: TE-8 (Esophageal Squamous Cell Carcinoma)
Outline: as §1

WM793B (Melanoma) = tested on: WM793B (Melanoma)
Outline: as §1

[12] = tested on: LXF-289 (Lung Adenocarcinoma)
Outline: as §1

[13] = tested on: SHP-77 (Small Cell Lung Carcinoma)
Outline: as §1

[14] = tested on: KE-37 (T-Lymphoblastic Leukemia)
Outline: as §1

[15] = tested on: NCI-H446 (Small Cell Lung Carcinoma)
Outline: as §1

[16] = tested on: SK-PN-DW (Other Solid Carcinomas)
Outline: as §1

Row | SMILES | Bliss excess [1] | Bliss excess [2] | Bliss excess [3] | Bliss excess [4] | Bliss excess [5] | Bliss excess (A2058 (Melanoma)) | Bliss excess (WM278 (Melanoma)) | Bliss excess (SF268 (Low Grade Glioma)) | Bliss excess [6] | Bliss excess [7] | Bliss excess [8] | Bliss excess [9] | Bliss excess [10] | Bliss excess [11] | Bliss excess (WM793B (Melanoma)) | Bliss excess [12] | Bliss excess [13] | Bliss excess [14] | Bliss excess [15] | Bliss excess [16]
1 | COc1nnc2ccc(N3CCC(c4ccc(OCCN5CCN(C)C(=O)[C@H]5C)cc4)CC3)nn12 [AZD5153] + CCN(CCO)CCCOc1ccc2c(Nc3cc(CC(=O)Nc4cccc(F)c4)[nH]n3)ncnc2c1 [AZD2811] (first compound max 1 µM, 7x7, partner max 1 µM) | -0.0306 | -0.0529 | -0.282 | -0.0891 | 0.0384 | 0.0568 | -0.0654 | -0.0592 | -0.027 | 0.0194 | -0.0143 | -0.0733 | -0.0497 | -0.0152 | -0.0567 | 0.0227 | -0.0325 | -0.0085 | -0.0481 | -0.0677
2 | COc1nnc2ccc(N3CCC(c4ccc(OCCN5CCN(C)C(=O)[C@H]5C)cc4)CC3)nn12 [AZD5153] + C[C@@H]1COCCN1C2=NC(=NC(=C2)C3(CC3)[S@](=N)(=O)C)C4=C5C=CNC5=NC=C4 [AZD6738] (first compound max 1 µM, 7x7, partner max 10 µM) | 0.0651 | 0.0155 | 0.0491 | -0.0059 | 0.0171 | 0.0671 | 0.0507 | 0.0311 | -0.0093 | -0.0245 | 0.0267 | -0.0208 | -0.0082 | 0.0176 | -0.0158 | 0.0681 | 0.0591 | 0.0286 | 0.0153 | -0.0638
3 | COc1nnc2ccc(N3CCC(c4ccc(OCCN5CCN(C)C(=O)[C@H]5C)cc4)CC3)nn12 [AZD5153] + Cc1c2c(nn1C)CSCc1cc(n(C)n1)CSc1cc(c3ccccc3c1)OCCCc1c(C(=O)O)n(C)c3c-2c(Cl)ccc13 [AZD5991] (first compound max 1 µM, 7x7, partner max 1 µM) | -0.0149 | -0.0366 | 0.0184 | -0.0621 | -0.0263 | 0.067 | -0.0929 | 0.0097 | 0.0283 | -0.0062 | -0.0709 | -0.0072 | -0.057 | 0.0322 | -0.0303 | 0.0019 | 0.0387 | 0.116 | 0.0153 | 0.0472
4 | COc1nnc2ccc(N3CCC(c4ccc(OCCN5CCN(C)C(=O)[C@H]5C)cc4)CC3)nn12 [AZD5153] + Cn1cnc2c(F)c(Nc3ccc(Br)cc3Cl)c(C(=O)NOCCO)cc21 [Selumetinib] (first compound max 1 µM, 7x7, partner max 10 µM) | 0.0189 | -0.015 | 0.0918 | -0.0495 | 0.0717 | 0.0358 | -0.0471 | -0.0504 | -0.0252 | -0.0136 | 0.0243 | -0.0452 | 0.0286 | 0.032 | -0.074 | -0.0468 | -0.134 | -0.0459 | 0.033 | -0.0326
5 | Cc1c2c(nn1C)CSCc1cc(n(C)n1)CSc1cc(c3ccccc3c1)OCCCc1c(C(=O)O)n(C)c3c-2c(Cl)ccc13 [AZD5991] + C=CCn1c(=O)c2cnc(Nc3ccc(N4CCN(C)CC4)cc3)nc2n1-c1cccc(C(C)(C)O)n1 [AZD1775] (first compound max 1 µM, partner max 1 µM) | 0.005 | -0.0016 | -0.0217 | -0.112 | -0.0694 | 0.0959 | 0.0438 | 0.0045 | -0.0319 | -0.0119 | -0.0306 | 0.0145 | -0.0385 | -0.058 | 0.0054 | -0.029 | -0.0378 | 0.0334 | -0.0162 | -0.0212
6 | Cc1c2c(nn1C)CSCc1cc(n(C)n1)CSc1cc(c3ccccc3c1)OCCCc1c(C(=O)O)n(C)c3c-2c(Cl)ccc13 [AZD5991] + CC1(C)CCC(CN2CCN(c3ccc(C(=O)NS(=O)(=O)c4ccc(NCC5CCOCC5)c([N+](=O)[O-])c4)c(Oc4cnc5[nH]ccc5c4)c3)CC2)=C(c2ccc(Cl)cc2)C1 [Venetoclax] (first compound max 1 µM, 7x7, partner max 1 µM) | -0.0503 | -0.0231 | 0.0293 | 0.206 | -0.0873 | 0.0967 | -0.0393 | -0.0096 | 0.0632 | 0.0217 | -0.0087 | -0.0207 | -0.0325 | 0.0098 | -0.0016 | 0.0108 | 0.0977 | 0.0273 | 0.117 | 0.0206
7 | Cc1c2c(nn1C)CSCc1cc(n(C)n1)CSc1cc(c3ccccc3c1)OCCCc1c(C(=O)O)n(C)c3c-2c(Cl)ccc13 [AZD5991] + C[C@@H]1COCCN1C2=NC(=NC(=C2)C3(CC3)[S@](=N)(=O)C)C4=C5C=CNC5=NC=C4 [AZD6738] (first compound max 1 µM, 7x7, partner max 10 µM) | 0.0547 | 0.0284 | 0.0146 | -0.0519 | -0.0143 | 0.0756 | 0.0307 | 0.0188 | 0.104 | 0.0291 | 0.0431 | -0.0037 | 0.0278 | 0.0197 | 0.0503 | 0.0667 | -0.0048 | 0.0338 | 0.0708 | -0.0175
8 | Cc1c2c(nn1C)CSCc1cc(n(C)n1)CSc1cc(c3ccccc3c1)OCCCc1c(C(=O)O)n(C)c3c-2c(Cl)ccc13 [AZD5991] + Cc1cc2ncnn2cc1Nc1ncc2c(n1)n(C1CCOCC1)c(=O)n2C [AZD7648] (first compound max 1 µM, 7x7, partner max 10 µM) | -0.0306 | -0.0003 | 0.0019 | -0.0082 | -0.0628 | -0.067 | -0.0428 | 0.0006 | 0.0299 | -0.0357 | -0.0354 | -0.091 | -0.0187 | -0.069 | -0.024 | -0.0889 | -0.0359 | -0.0059 | 0.0148 | -0.0404
9 | Cc1c2c(nn1C)CSCc1cc(n(C)n1)CSc1cc(c3ccccc3c1)OCCCc1c(C(=O)O)n(C)c3c-2c(Cl)ccc13 [AZD5991] + Cn1cnc2c(F)c(Nc3ccc(Br)cc3Cl)c(C(=O)NOCCO)cc21 [Selumetinib] (first compound max 1 µM, 7x7, partner max 3 µM) | -0.0477 | 0.0722 | -0.0063 | -0.0302 | 0.0011 | 0.213 | 0.0368 | -0.0199 | 0 | 0.0231 | 0.0116 | -0.0284 | -0.0174 | -0.0435 | -0.0053 | 0.0414 | 0.0623 | 0.0278 | 0.0241 | -0.0271
10 | C[C@@H]1COCCN1c1cc(C2([S@](C)(=N)=O)CC2)nc(-c2ccnc3[nH]ccc23)n1 [AZD6738] + O=C(c1cc(Cc2n[nH]c(=O)c3ccccc23)ccc1F)N1CCN(C(=O)C2CC2)CC1 [Olaparib] (first compound max 10 µM, 7x7, partner max 10 µM) | 0.0112 | 0.0098 | 0.0091 | 0.0021 | -0.0122 | 0.0033 | -0.0488 | 0.0011 | -0.0033 | -0.0339 | 0.0151 | -0.0083 | 0.0428 | -0.0218 | -0.0214 | -0.0371 | 0.0804 | 0.0288 | 0.0602 | 0.008
11 | Cc1cc2ncnn2cc1Nc1ncc2c(n1)n(C1CCOCC1)c(=O)n2C [AZD7648] + C=CCn1c(=O)c2cnc(Nc3ccc(N4CCN(C)CC4)cc3)nc2n1-c1cccc(C(C)(C)O)n1 [AZD1775] (first compound max 10 µM, partner max 1 µM) | 0.0063 | -0.0112 | -0.0018 | -0.06 | -0.0577 | 0.0194 | -0.027 | 0.0296 | -0.0686 | -0.0006 | -0.055 | 0.0747 | 0.0057 | 0.0308 | -0.0395 | -0.0396 | -0.0798 | -0.0108 | -0.0228 | -0.145
12 | Cc1cc2ncnn2cc1Nc1ncc2c(n1)n(C1CCOCC1)c(=O)n2C [AZD7648] + CCN(CCO)CCCOc1ccc2c(Nc3cc(CC(=O)Nc4cccc(F)c4)[nH]n3)ncnc2c1 [AZD2811] (first compound max 10 µM, 7x7, partner max 1 µM) | -0.0044 | 0.0177 | -0.0328 | -0.0541 | -0.0218 | 0.01 | -0.0081 | 0.0023 | -0.0089 | 0.0791 | -0.003 | -0.0159 | 0.0427 | 0.0717 | -0.0038 | 0.0397 | -0.0244 | -0.0002 | -0.0157 | 0.105
13 | Cc1cc2ncnn2cc1Nc1ncc2c(n1)n(C1CCOCC1)c(=O)n2C [AZD7648] + CN(C)CCCOc1ccc(-c2ccc3ncc4c(c3c2)n(C2CCOCC2)c(=O)n4C)cn1 [AZD0156] (first compound max 10 µM, 7x7, partner max 1 µM) | -0.0019 | -0.0048 | -0.0036 | -0.113 | -0.0413 | -0.001 | -0.0295 | 0.0098 | 0.0025 | -0.0303 | -0.019 | -0.0068 | 0.0145 | -0.0453 | -0.029 | 0.034 | -0.0017 | 0.0492 | 0.0418 | 0.0349
14 | Cc1cc2ncnn2cc1Nc1ncc2c(n1)n(C1CCOCC1)c(=O)n2C [AZD7648] + C[C@@H]1COCCN1C2=NC(=NC(=C2)C3(CC3)[S@](=N)(=O)C)C4=C5C=CNC5=NC=C4 [AZD6738] (first compound max 10 µM, 7x7, partner max 10 µM) | 0.0627 | -0.0093 | 0.0147 | -0.0088 | -0.0939 | 0.024 | 0.0112 | 0.0152 | 0.0434 | 0.0254 | -0.0312 | 0.0527 | 0.0264 | -0.0122 | -0.0352 | 0.0315 | -0.0139 | 0.0286 | 0.0335 | 0.0154
15 | Cc1cc2ncnn2cc1Nc1ncc2c(n1)n(C1CCOCC1)c(=O)n2C [AZD7648] + O=C(c1cc(Cc2n[nH]c(=O)c3ccccc23)ccc1F)N1CCN(C(=O)C2CC2)CC1 [Olaparib] (first compound max 10 µM, 7x7, partner max 10 µM) | -0.0148 | 0.0107 | -0.0584 | -0.0373 | -0.0315 | -0.0319 | -0.0309 | -0.0274 | -0.0394 | -0.0373 | 0.0666 | -0.0945 | -0.03 | -0.0413 | -0.0136 | -0.0504 | -0.0585 | 0.0309 | -0.0388 | 0.0223
